As usually defined, the IC50 is the concentration needed to halve the response being measured.

The values that follow come from US20150218172A1, “Pyrrolo[2,3-D]Pyrimidine Tropomyosin-Related Kinase Inhibitors” (PFIZER LIMITED, priority 2012, published 2015).

The target of the test is T1, TrkA (Homo sapiens, UniProt P04629).
T1 construct: aa 441-796; His; purchased Invitrogen PV3144
T1 sequence (P04629 441-796): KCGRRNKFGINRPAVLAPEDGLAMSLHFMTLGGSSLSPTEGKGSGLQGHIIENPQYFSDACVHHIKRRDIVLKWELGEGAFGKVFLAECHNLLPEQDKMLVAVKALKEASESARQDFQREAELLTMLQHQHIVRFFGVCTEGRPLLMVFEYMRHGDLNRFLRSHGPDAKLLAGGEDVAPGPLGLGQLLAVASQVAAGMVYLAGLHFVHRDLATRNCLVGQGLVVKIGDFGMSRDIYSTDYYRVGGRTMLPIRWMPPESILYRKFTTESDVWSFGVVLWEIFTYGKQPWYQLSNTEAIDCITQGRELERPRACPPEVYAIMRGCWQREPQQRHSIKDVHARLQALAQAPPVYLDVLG
Description: Isolated TRK enzyme assay (HTRF KinEASE-TK kit), PV3144 TrkA enzyme assay. The test is classed as biochemical. To be noted: PV3144 TrkA enzyme assay, recombinant His-tagged cytoplasmic domain aa 441-796, 4 nM enzyme, 40 uM ATP; arithmetic mean where more than one reading; read-out: Trka enzyme (IC50). Summed up:
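Recombinant His-tagged cytoplasmic domain of human TrkA, preactivated with ATP for 20 min, then 20 min with compound before biotinylated TK substrate (1 uM final) at room temperature. HTRF read at 665/620 nm; % inhibition normalised to reference-compound and DMSO controls, IC50 from sigmoid fit, mean of replicates.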
On the technique in general: TR-FRET usually uses a lanthanide donor and a delayed reading to cut background.
Take `CC(C)n1cc(C(=O)c2ccnc(NC(=O)Cc3ccc(OC(F)(F)F)cc3)c2)c2cncnc21` [Example 120, N-(4-{[7-(propan-2-yl)-7H-pyrrolo[2,3-d]pyrimidin-5-yl]carbonyl}pyridin-2-yl)-2-[4-(trifluoromethoxy)phenyl]acetamide]: the IC50 came out at 18.6 nM.
To `Cc1cn(CC(=O)Nc2cc(C(=O)c3cn(C(C)C)c4ncncc34)ccn2)nn1` [Example 121, 2-(4-methyl-1H-1,2,3-triazol-1-yl)-N-(4-{[7-(propan-2-yl)-7H-pyrrolo[2,3-d]pyrimidin-5-yl]carbonyl}pyridin-2-yl)acetamide] belongs 328 nM; to `CC(C)n1cc(C(=O)c2ccnc(NC(=O)Cc3ccc(C(F)(F)F)cc3)c2)c2cncnc21` [Example 122, N-(4-{[7-(propan-2-yl)-7H-pyrrolo[2,3-d]pyrimidin-5-yl]carbonyl}pyridin-2-yl)-2-[4-(trifluoromethyl)phenyl]acetamide], 4.24 nM.
Under `CC(C)n1cc(C(=O)c2ccnc(NC(=O)Cc3cccc(S(C)(=O)=O)c3)c2)c2cncnc21` [Example 123, 2-[3-(methylsulfonyl)phenyl]-N-(4-{[7-(propan-2-yl)-7H-pyrrolo[2,3-d]pyrimidin-5-yl]carbonyl}pyridin-2-yl)acetamide] stands 42.1 nM; under `CC(C)n1cc(C(=O)c2ccnc(NC(=O)Cc3ccc(C(F)(F)F)c(F)c3)c2)c2cncnc21` [Example 124, 2-[3-fluoro-4-(trifluoromethyl)phenyl]-N-(4-{[7-(propan-2-yl)-7H-pyrrolo[2,3-d]pyrimidin-5-yl]carbonyl}pyridin-2-yl)acetamide], 15.1 nM; under `Cc1cc(C(F)(F)F)nn1CC(=O)Nc1cc(C(=O)c2cn(C(C)C)c3nc(O)ncc23)ccn1` [Example 125, N-(4-{[2-hydroxy-7-(propan-2-yl)-7H-pyrrolo[2,3-d]pyrimidin-5-yl]carbonyl}pyridin-2-yl)-2-[5-methyl-3-(trifluoromethyl)-1H-pyrazol-1-yl]acetamide], 250 nM.
To `Cc1cc(C)n(CC(=O)Nc2cc(C(=O)c3cn(CC(C)(C)O)c4ncncc34)ccn2)n1` [Example 127, 2-(3,5-dimethyl-1H-pyrazol-1-yl)-N-(4-{[7-(2-hydroxy-2-methylpropyl)-7H-pyrrolo[2,3-d]pyrimidin-5-yl]carbonyl}pyridin-2-yl)acetamide] belongs 1110 nM; to `Cc1ccn(CC(=O)Nc2cc(C(=O)c3cn(CCO)c4ncncc34)ccn2)n1` [Example 128, N-(4-{[7-(2-hydroxyethyl)-7H-pyrrolo[2,3-d]pyrimidin-5-yl]carbonyl}pyridin-2-yl)-2-(3-methyl-1H-pyrazol-1-yl)acetamide], 1230 nM.
On to `CC(C)c1cn(CC(=O)Nc2cc(C(=O)c3cn(CCO)c4ncncc34)ccn2)nn1` [Example 129, N-(4-{[7-(2-hydroxyethyl)-7H-pyrrolo[2,3-d]pyrimidin-5-yl]carbonyl}pyridin-2-yl)-2-[4-(propan-2-yl)-1H-1,2,3-triazol-1-yl]acetamide], for which the half-maximal inhibitory concentration (IC50) amounted to 201 nM.
Under `Cc1ccnn1CC(=O)Nc1cc(C(=O)c2cn(CCO)c3ncncc23)ccn1` [Example 130, N-(4-{[7-(2-hydroxyethyl)-7H-pyrrolo[2,3-d]pyrimidin-5-yl]carbonyl}pyridin-2-yl)-2-(5-methyl-1H-pyrazol-1-yl)acetamide] stands 1750 nM; under `CS(=O)(=O)c1cccc(CC(=O)Nc2cc(C(=O)c3cn(CCO)c4ncncc34)ccn2)c1` [Example 131, N-(4-{[7-(2-hydroxyethyl)-7H-pyrrolo[2,3-d]pyrimidin-5-yl]carbonyl}pyridin-2-yl)-2-[3-(methylsulfonyl)phenyl]acetamide], 1110 nM; under `Cc1cc(C(F)(F)F)nn1CC(=O)Nc1cc(C(=O)c2cn(CCO)c3ncncc23)ccn1` [Example 132, N-(4-{[7-(2-hydroxyethyl)-7H-pyrrolo[2,3-d]pyrimidin-5-yl]carbonyl}pyridin-2-yl)-2-[5-methyl-3-(trifluoromethyl)-1H-pyrazol-1-yl]acetamide], 48.2 nM.
Under `Cc1cn(CC(=O)Nc2cc(C(=O)c3cn(CCO)c4ncncc34)ccn2)nn1` [Example 133, N-(4-{[7-(2-hydroxyethyl)-7H-pyrrolo[2,3-d]pyrimidin-5-yl]carbonyl}pyridin-2-yl)-2-(4-methyl-1H-1,2,3-triazol-1-yl)acetamide] stands 9380 nM; under `O=C(Cc1ccccc1OC(F)(F)F)Nc1cc(C(=O)c2cn(CCO)c3ncncc23)ccn1` [Example 134, N-(4-{[7-(2-hydroxyethyl)-7H-pyrrolo[2,3-d]pyrimidin-5-yl]carbonyl}pyridin-2-yl)-2-[2-(trifluoromethoxy)phenyl]acetamide], 583 nM.
To `O=C(Cc1cccc(OC(F)(F)F)c1)Nc1cc(C(=O)c2cn(CCO)c3ncncc23)ccn1` [Example 135, N-(4-{[7-(2-hydroxyethyl)-7H-pyrrolo[2,3-d]pyrimidin-5-yl]carbonyl}pyridin-2-yl)-2-[3-(trifluoromethoxy)phenyl]acetamide] belongs 21.5 nM; to `O=C(Cc1ccc(Cl)cc1)Nc1cc(C(=O)c2cn(CCO)c3ncncc23)ccn1` [Example 136, 2-(4-chlorophenyl)-N-(4-{[7-(2-hydroxyethyl)-7H-pyrrolo[2,3-d]pyrimidin-5-yl]carbonyl}pyridin-2-yl)acetamide], 25.8 nM.
On to `O=C(Cn1cc(C(F)(F)F)nn1)Nc1cc(C(=O)c2cn(CCO)c3ncncc23)ccn1` [Example 137, N-(4-{[7-(2-hydroxyethyl)-7H-pyrrolo[2,3-d]pyrimidin-5-yl]carbonyl}pyridin-2-yl)-2-[4-(trifluoromethyl)-1H-1,2,3-triazol-1-yl]acetamide], for which the IC50 is 188 nM.
To `O=C(Cc1ccc(Cl)c(Cl)c1)Nc1cc(C(=O)c2cn(CCO)c3ncncc23)ccn1` [Example 138, 2-(3,4-dichlorophenyl)-N-(4-{[7-(2-hydroxyethyl)-7H-pyrrolo[2,3-d]pyrimidin-5-yl]carbonyl}pyridin-2-yl)acetamide] belongs 31.1 nM; to `Cc1cc(C)n(CC(=O)Nc2cc(C(=O)c3cn(CCO)c4ncncc34)ccn2)n1` [Example 139, 2-(3,5-dimethyl-1H-pyrazol-1-yl)-N-(4-{[7-(2-hydroxyethyl)-7H-pyrrolo[2,3-d]pyrimidin-5-yl]carbonyl}pyridin-2-yl)acetamide], 760 nM.
Under `O=C(Cc1ccc(F)cc1F)Nc1cc(C(=O)c2cn(CCO)c3ncncc23)ccn1` [Example 140, 2-(2,4-difluorophenyl)-N-(4-{[7-(2-hydroxyethyl)-7H-pyrrolo[2,3-d]pyrimidin-5-yl]carbonyl}pyridin-2-yl)acetamide] stands 223 nM; under `O=C(Cc1ccc(C(F)(F)F)cc1)Nc1cc(C(=O)c2cn(CCO)c3ncncc23)ccn1` [Example 141, N-(4-{[7-(2-hydroxyethyl)-7H-pyrrolo[2,3-d]pyrimidin-5-yl]carbonyl}pyridin-2-yl)-2-[4-(trifluoromethyl)phenyl]acetamide], 16.4 nM; under `O=C(Cc1ccc(C(F)(F)F)c(F)c1)Nc1cc(C(=O)c2cn(CCO)c3ncncc23)ccn1` [Example 142, 2-[3-fluoro-4-(trifluoromethyl)phenyl]-N-(4-{[7-(2-hydroxyethyl)-7H-pyrrolo[2,3-d]pyrimidin-5-yl]carbonyl}pyridin-2-yl)acetamide], 29.5 nM.
